Source: patent publication US20120213727A1, “THERAPEUTIC USES OF OLIGOMERIC AND POLYMERIC MONOTERPENES” (REGENERA PHARMA LTD., priority 2009, published 2012)

Tested on: ARPE-19 cells
Test: Neuronal-like differentiation in ARPE-19 retinal pigment epithelial cell cultures
Assay type: cell-based, human
Details: 72 hrs incubation, optical microscope
Method: ARPE-19 cells (obtained from the American Type Culture Collection, ATCC) were plated in flat bottom 96 well tissue culture microplates (Costar) at a concentration of 2-5×10^3 cells per well (1-2.5×10^4 cells/mL) in a growth medium consisting of DMEM:Ham F-12, 1:1, supplemented with 10% Fetal Bovine Serum, […] glutamine, 100 units/mL penicillin and 100 μg/mL streptomycin. The cells were allowed to adhere to the plate surfaces overnight prior to treatment with polymeric monoterpene.
Each type of polymeric monoterpene was synthesized to provide a 10% solution in grape seed oil, olive oil, Mygliol 810 or Mygliol 812. The preparations were added to the cultures at volumes of 0.5 μl, 2 μl, 5 μl and 20 μl. […]
The cultures were incubated in a 37° C., 5% CO2 incubator for 72 hrs. The medium was then removed, the cultures washed twice with phosphate buffered saline (PBS), fixed with absolute methanol for 10 min and stained with Hemacolor® reagents (Boehringer Mannheim), which stain cells in a manner similar to Giemsa, and may be used in a quantitative cell viability assay (see Keisari, Y. A colorimetric microtiter assay for the quantitation of cytokine activity on adherent cells in tissue culture. J. Immunol. Methods 146, 155-161, 1992). The degree of differentiation was determined by optical microscope. […]

CC=C(C)C=CC=C(C)C [monomeric alloocimene, 2,6-dimethyl-2,4,6-octatriene]
induction of neuronal differentiation (morphology): showed no such effects
induction of neuronal differentiation (morphology) (listed as monomeric allocimene): has no influence on the cells
